Experiments:
[1] = tested on: CHO cells; test: Transfection of adherent CHO cells with CAT plasmid, CAT assay; type: cell-based, Chinese Hamster; details: for transfection efficiency of the CAT gene, percentage of acetylated chloramphenicol in the cellular extract: adherent cells (CHO), 3 h incubation, medium with serum
Method: (§1) 5 μg of plasmid DNA and 11 μg (11 μl) of pure diC14-amidine suspension (for 25 μg (25 μl) of diC14-amidine/PE suspension (see example 2)) are separately diluted in a final volume of 50 μl with distilled water and sterilized. Both solutions are then mixed and incubated for 15 min at room temperature.
The cells are cultured in 6-well culture dishes until they are 80-90% confluent.
The suspension containing the complex (diC14-amidine-DNA or diC14-amidine/PE-DNA) is gently mixed with 2 ml of culture medium. The culture medium used for the transfection operation is identical to the usual culture medium for the cells to be transformed. The medium is prepared with 2.5% or without serum.
The mixture thus formed constitutes the “transfection medium”. The cells (about 10^6) are washed with the culture medium and the transfection medium is added. The medium is incubated for the desired period. This period may depend on the cell line to be transfected but an incubation time of 2-3 h is generally used. After incubation, the transfection medium is replaced with fresh medium; 6 hours later, the cells can be […] into 100 mm culture dishes.
(§2) CHO (Chinese Hamster Ovary) cells are cultured in F12 medium supplemented with 1% glutamine and 1% penicillin/streptomycin and containing 10% FCS (Fetal Calf Serum, K562 (human myeloid) cells are cultured in RFMI medium supplemented with antibiotics and non-essential amino acids and containing 10% FCS (0.5-1×10^6 cells/ml). Both cell lines are cultured under a CO2 atmosphere (37° C., 5% CO2).
(§3) The plasmid used is derived from the commercial plasmid pCMV5 into which the bacterial replication origin S1, the ampicillin resistance gene and the CAT gene of bacterial origin have been inserted. It is approximately 5000 base pairs in size and is stored at a concentration of 1 mg/ml.
The general procedure described above was followed; 5 μg (5 μl) of plasmid DNA and 11 μg (11 μl) of pure diC14-amidine suspension (or 25 μg (25 μl) of diC14-amidine/PE suspension) prepared as described above are used. The CHO cells (adherent) are plated in the 6-well culture dishes the day before the experiment in an amount of 10^6 cells/well; while the K562 cells (in suspension) are used in an amount of 10^6 cells per experiment.
(§4) The incubation was carried out for 3 h for the two cell lines. The transfection medium is the normal culture medium (with serum) with which vesicle vector (pure diC14-amidine or diC14-amidine/PE/DNA) has been mixed under the conditions described in the general procedure.
(§5) After incubation, the cells are treated as described above; the CHO cells are transferred after 6 h into 100 mm culture dishes. The two cell lines continue to grow for 36 h before the CAT assay performed as described by Gorman et al., B.H. (1982), Mol. Cell. Biol. 2, 1044-1051; in brief, the cell lysates are incubated at 37° C. with [^14C]chloramphenicol and acetyl CoA for 2 h and extracted with ethyl acetate. The organic phase is eluted by TLC (thin-layer chromatography) with chloroform/methanol 95:5. The acetylation of chloramphenicol is determined by autoradiography on the chromatograms and counting of the spots on the plate.
(§6) Table 5 below gives the comparison of the transfection efficiency of the CAT gene for diC14 and the product DOTAP® marketed by Boehringer Mannheim, expressed as percentage of acetylated chloramphenicol in the cellular extract, under identical experimental conditions.

[2] = tested on: K562 cells; test: Transfection of K562 suspension cells with CAT plasmid, CAT assay; type: cell-based, human; details: 3 h incubation, medium with serum
Method: as §1
The suspension containing the complex (diC14-amidine-DNA or diC14-amidine/PE-DNA) is gently mixed with 10 ml of medium. The mixture thus formed constitutes the “transfection medium”. Aliquots of 10^6 cells are centrifuged and the pellets are resuspended in the transfection medium. The cell suspensions are distributed into 100 mm culture dishes. The suspensions are incubated for the desired period; after incubation, the cells are centrifuged and resuspended in 10 ml of fresh medium and then cultured normally.
as §2, §3
[…] The CHO cells (adherent) are plated in the 6-well culture dishes the day before the experiment in an amount of 10^6 cells/well; while the K562 cells (in suspension) are used in an amount of 10^6 cells per experiment.
as §4
as §5, with “The organic phase is eluted by TLC (thin-layer chromatography) with chloroform/methanol 95:5.” left out
as §6

[3] = vector composition 2 + 5 (μg) plasmid DNA + cationic vesicles
[4] = vector composition 5 + 10 (μg) plasmid DNA + cationic vesicles

Compound | transfection efficiency of the CAT gene, percentage of acetylated chloramphenicol in the cellular extract [1, 3] [%] | transfection efficiency of the CAT gene, percentage of acetylated chloramphenicol in the cellular extract [1, 4] [%] | transfection efficiency of the CAT gene, percentage of acetylated chloramphenicol in the cellular extract [2, 3] [%] | transfection efficiency of the CAT gene, percentage of acetylated chloramphenicol in the cellular extract [2, 4] [%] | quantities needed for transfection efficiencies relative to available commercial products ([1]; compared with DOTAP (Boehringer Mannheim) and Lipofectin (Gibco BRL), CHO and K562 cells)
CCCCCCCC/C=C\CCCCCCCC(=O)OCC(C[N+](C)(C)C)OC(=O)CCCCCCC/C=C\CCCCCCCC.COS(=O)(=O)[O-] (stereo not drawn) [DOTAP, N-(2,3-dioleoyloxy)propyl-N,N,N-trimethylammonium methyl sulfate, reference compound] | 32 | 40 | 29 | 36 | –
CCCCCCCCCCCCCCN=C(CCNCCCCCCCCCCCCCC)NC(C)(C)C [diC14-t-but, 3-tetradecylamino-N-tert-butyl-N′-tetradecylpropionamidine] | 63 | 65 | 60 | 68 | two to three times lower
